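Each compound was tested at five concentrations against cells in 96-well plates for 48 hours. GI50 is the concentration that inhibits growth by half.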 Calls of active or inactive are those of the source. Rule as the data show it: active = GI50 up to about 1.1 µM and inactive = higher.
Assays:
Test in all cases: NCI anticancer screen, dose series, 48 h
[1] = system: SN12C
[2] = system: TK-10
[3] = system: NCI-H226
[4] = system: UACC-257
[5] = system: CAKI-1
[6] = system: NCI/ADR-RES
[7] = system: SF-268
[8] = system: 786-0
[9] = system: HCT-15
[10] = system: NCI-H23
[11] = system: OVCAR-3
[12] = system: LOX IMVI
[13] = system: OVCAR-5
[14] = system: A498
[15] = system: NCI-H522
[16] = system: SK-MEL-28
[17] = system: SW-620
[18] = system: OVCAR-8
[19] = system: HCC 2998
[20] = system: IGROV-1
[21] = system: ACHN
[22] = system: RXF 393
[23] = system: CCRF-CEM
[24] = system: U-251
[25] = system: SNB-75
[26] = system: KM12
[27] = system: M14
[28] = system: BT-549
[29] = system: MOLT-4
[30] = system: SR
[31] = system: SK-OV-3
[32] = system: SF-295
[33] = system: SNB-19
[34] = system: SK-MEL-2
[35] = system: Hs-578T
[36] = system: A549
[37] = system: OVCAR-4
[38] = system: Malme-3M
[39] = system: RPMI-8226
[40] = system: HOP-62
[41] = system: MDA-MB-231
[42] = system: HCT-116
[43] = system: UACC-62
[44] = system: MDA-N
[45] = system: DU-145
[46] = system: T47D
[47] = system: HOP-92
[48] = system: NCI-H460
[49] = system: SF-539
[50] = system: HL-60
[51] = system: MDA-MB-435
[52] = system: MCF7
[53] = system: SK-MEL-5
[54] = system: COLO 205
[55] = system: EKVX
[56] = system: HT-29
[57] = system: PC-3

Measured: GI50

CC1(C)N/C(=C\[N+](=O)[O-])C(C)(C)N1O
inactive: [1] > 10 µM | [2] > 10 µM | [3] > 10 µM | [4] > 10 µM | [5] > 10 µM | [6] > 10 µM | [7] > 10 µM | [8] > 10 µM | [10] > 10 µM | [11] > 10 µM | [12] > 10 µM | [13] > 10 µM | [14] > 10 µM | [15] > 10 µM | [16] > 10 µM | [17] > 10 µM | [18] > 10 µM | [19] > 10 µM | [20] > 10 µM | [21] > 10 µM | [22] > 10 µM | [23] > 10 µM | [24] > 10 µM | [25] > 10 µM | [26] > 10 µM | [27] > 10 µM | [28] > 10 µM | [29] > 10 µM | [30] > 10 µM | [31] > 10 µM | [32] > 10 µM | [33] > 10 µM | [34] > 10 µM | [35] > 10 µM | [36] > 10 µM | [37] > 10 µM | [38] > 10 µM | [39] > 10 µM | [40] > 10 µM | [41] > 10 µM | [42] > 10 µM | [43] > 10 µM | [44] > 10 µM | [45] > 10 µM | [46] > 10 µM | [47] > 10 µM | [48] > 10 µM | [49] > 10 µM | [50] > 10 µM | [51] > 10 µM | [52] > 10 µM | [53] > 10 µM | [54] > 10 µM | [55] > 10 µM | [56] > 10 µM | [57] > 10 µM
> 10 µM: [9]
